Assay results reported in patent US20150265621A1, “Treating Bronchiectasis With Doxofylline and Erdosteine” (Alitair Pharmaceuticals, Inc., priority 2014, published 2015).
Where two headings read alike, the source gives them in different places.

Legend:
[1] = tested on: bronchiectasis patients with mucus hypersecretion; assay: Summary (mean, weighted mean) of the three erdosteine bronchiectasis studies; format: in vivo, human; conditions: erdosteine 300 mg BID + PCT
Protocol: There are three published studies showing effectiveness of erdosteine in the treatment of bronchiectasis: Crisafulli et al (2007), Buquan and Xinke (2011) and Yipin (2012). The three studies have a total of 170 subjects, 85 of whom received standard care consisting of Percussive Chest Therapy (PCT) for up to 15 days. The remaining 85 received PCT plus treatment with erdosteine 300 mg BID for the same length of time. […] FEV1, FVC, PEF, MIP, MEP, PaO2 and PaCO2 measured according to test methods described by Mason et al, 2005. FEV1=forced expiratory volume in one second, measured in liters. FVC=forced vital capacity, total amount air the patient can expel in one breath, measured in liters. PEF=peak expiratory flow, measure in liters per second. MIP=maximum inhalation pressure. MEP=Maximum expiratory pressure. PaO2=partial pressure of oxygen. PaCO2=partial pressure of carbon dioxide. […] Again, the results are similar in terms of order of magnitude and consistent in showing an incremental benefit to adding erdosteine to PCT in bronchiectasis patients. […] The use of erdosteine with PCT produces significant and clinically meaningful changes in the respiratory functioning of patients with bronchiectasis and mucus hypersecretion as compared to PCT alone.

[2] = tested on: bronchiectasis patients with mucus hypersecretion; conditions: Crisafulli; erdosteine 300 mg BID + PCT up to 15 days; 15 subjects; cited from earlier work
[3] = tested on: bronchiectasis patients with mucus hypersecretion; conditions: Buquan; erdosteine 300 mg BID + PCT up to 15 days; 30 subjects; cited from earlier work
[4] = tested on: bronchiectasis patients with mucus hypersecretion; conditions: Yipin; erdosteine 300 mg BID + PCT up to 15 days; 40 subjects; cited from earlier work
[5] = tested on: bronchiectasis patients with mucus hypersecretion; conditions: cited from earlier work
chronic asthma subjects = conditions: randomized clinical study; cited from earlier work
CF patients = conditions: intravenous; cited from earlier work
[6] = tested on: patients with theophylline overdose; conditions: cited from earlier work
[7] = tested on: adults with CT scan confirmed bronchiectasis; conditions: nebulized, vs placebo, cited from earlier work
[8] = weighted by % total subjects (18%, 47%, 35%)

## O=C(O)CSCC(=O)NC1CCSC1=O (stereo not shown) [Erdo, erdosteine]
[1]; mean of the three studies
  FEV1 change vs baseline, Mean: 0.2 L
  FVC change vs baseline, Mean: 0.3 L
  MEP change vs baseline, Mean: 9.3 Kpa
  MIP change vs baseline, Mean: 9 kPa
  PEF change vs baseline, Mean: 0.3 L/s
  PaCO2 change vs baseline, Mean: 1.3 mm Hg
  PaO2 change vs baseline, Mean: 5.5 mm Hg
[1]; [8]
  FEV1 change vs baseline, Wtd Mean Diff: 0.26 L
  FVC change vs baseline, Wtd Mean Diff: 0.36 L
  MEP change vs baseline, Wtd Mean Diff: 9.69 Kpa
  MIP change vs baseline, Wtd Mean Diff: 9.09 kPa
  PEF change vs baseline, Wtd Mean Diff: 0.35 L/s
  PaCO2 change vs baseline, Wtd Mean Diff: 1.35 mm Hg
  PaO2 change vs baseline, Wtd Mean Diff: 5.70 mm Hg
[2]
  FEV1 change vs baseline: 0.2 L
  FVC change vs baseline: 0.3 L
  MEP change vs baseline: 8.4 Kpa
  MIP change vs baseline: 8.9 kPa
  PEF change vs baseline: 0.3 L/s
  PaCO2 change vs baseline: 0.1 mm Hg
  PaO2 change vs baseline: 5.1 mm Hg
[3]
  FEV1 change vs baseline: 0.19 L
  FVC change vs baseline: 0.31 L
  MEP change vs baseline: 8.2 Kpa
  MIP change vs baseline: 8.1 kPa
  PEF change vs baseline: 0.3 L/s
  PaCO2 change vs baseline: 0.3 mm Hg
  PaO2 change vs baseline: 5.2 mm Hg
[4]
  FEV1 change vs baseline: 0.34 L
  FVC change vs baseline: 0.43 L
  MEP change vs baseline: 11.3 Kpa
  MIP change vs baseline: 9.9 kPa
  PEF change vs baseline: 0.4 L/s
  PaCO2 change vs baseline: 2.6 mm Hg
  PaO2 change vs baseline: 6.3 mm Hg
[5]
  effect of erdosteine with PCT compared to PCT alone on respiratory functioning: significantly enhances the effect of PCT alone

## Cn1c(=O)c2c(ncn2CC2OCCO2)n(C)c1=O [doxofylline]
Chronic asthma subjects
  effectiveness in treating chronic asthma compared to theophylline: as effective as theophylline
  subjects dropped out of the study due to side effects: 11%

## Cn1c(=O)c2[nH]cnc2n(C)c1=O [theophylline]
CF patients
  effect on FEV1 and FEF 0.75: positive results
[6]
  patients treated in an emergency setting for overdose who die: Ten
Chronic asthma subjects
  subjects dropped out of the study due to side effects: 31%

## NC[C@H]1O[C@H](O[C@H]2[C@H](O)[C@@H](O[C@H]3O[C@H](CO)[C@@H](O)[C@H](N)[C@H]3O)[C@H](N)C[C@@H]2N)[C@H](N)C[C@@H]1O [tobramycin]
[7]; after four weeks of treatment
  effect on FEV1: no effect
[7]; four weeks of treatment
  eradication of P. aeruginosa: significant effect
